Measurements taken from US11167012B2, “Peptide inhibition of CCR3-mediated diseases or conditions” (The Board of Trustees of the University of Illinois, priority 2015, dated 2021).
Where a SMILES comes first, the peptide text is derived from it. The star is where a group is joined. X1 = NC(=O)CCOCCOCCOCCOCCOCCOCCOCCOCCOCCOCCOCCOCCOCCOCCOCCOCCOCCOCCOCCOCCOCCOCCOCCOCCOCCOCCOCCOCCN*

Legend:
CCR3 [1] = target: T1, CCR3 (Homo sapiens, UniProt P51677); experiment: Chemotaxis assay (Transwell), blood eosinophils; type: cell-based; design: host or cells: AML14.3D10-CCR3 (eosinophilic myelocytic cell line, kept under G418); conditions: for IC90: blood eosinophils, 4 hours
T1 sequence (P51677 1-355): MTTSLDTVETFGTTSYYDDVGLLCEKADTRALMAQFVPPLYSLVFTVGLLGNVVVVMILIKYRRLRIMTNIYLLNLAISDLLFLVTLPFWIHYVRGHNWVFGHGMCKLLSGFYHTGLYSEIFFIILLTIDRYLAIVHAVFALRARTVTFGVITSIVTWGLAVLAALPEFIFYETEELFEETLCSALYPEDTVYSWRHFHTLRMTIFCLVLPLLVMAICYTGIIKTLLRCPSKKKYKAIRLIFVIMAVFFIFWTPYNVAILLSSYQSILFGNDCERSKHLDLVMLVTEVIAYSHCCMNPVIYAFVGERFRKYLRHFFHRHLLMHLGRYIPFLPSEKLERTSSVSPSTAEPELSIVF
From the text: Blood eosinophils were purified from anti-coagulated blood drawn from mild allergic asthmatic subjects. Peripheral blood was subjected to density gradient centrifugation over FICOLL-PAQUE® Plus (GE Healthcare, Pittsburgh, Pa.) media to obtain a pellet containing erythrocytes and granulocytes. After erythrocyte lysis via hypotonic shock, eosinophils were purified by negative selection using a cocktail of antibody-conjugated magnetic beads against non-eosinophils (Miltenyi Biotec, Auburn, Calif.). The eosinophils were resuspended in X-VIVO 10 without phenol red. The purity and viability of the eosinophils obtained was routinely >97% as assessed by Hema III and trypan blue staining, respectively.
Cell migration was determined using a 96-well TRANSWELL® system (Corning, Tewksbury, Mass.). Briefly, 200 μl chemoattractant or control medium was added to the lower chamber while 100 μl cells were added to the upper chamber. The two chambers were separated by a polycarbonate filter with 5 μm pores. For AML14.3D10-CCR3 cells, 2×10^5 cells/well were resuspended in RPMI-1640+0.1% BSA and allowed to migrate for 4 hours at 37° C. […] Migrated cells were counted using a Beckman QUANTA SC flow cytometer. All experiments were performed in duplicate. Checkerboard analysis was done to distinguish chemotaxis from chemokinesis.
Primary eosinophils and the stable CCR3+eosinophilic myelocytic cell line, AML14.3D10-CCR3 (Daugherty, et al. (1996) J. Exp. Med. 183:2349-2354) undergo CCR3-mediated chemotaxis induced by multiple chemokines including eotaxin/CCL11, RANTES/CCL5, MCP-4/CCL13, and MEC/CCL28 (Daugherty, et al. (1996) J. Exp. Med. 183:2349-2354; Pan, et al. (2000) J. Immunol. 165:2943-2949). […] In addition, R3-2-1 inhibits chemotaxis of both AML14.3D10-CCR3 and blood eosinophils induced by CCL11/Eotaxin-1, CCL24/Eotaxin-2, and CCL26/Eotaxin-3 in a dose-dependent fashion (Table 3).

CCR3 [2] = target: T1, CCR3; experiment: Chemotaxis assay (Transwell), AML14.3D10-CCR3 cells; type: cell-based; design: host or cells: AML14.3D10-CCR3 (eosinophilic myelocytic cell line, kept under G418); conditions: for IC90: 4 hours
Method: AML14.3D10-CCR3 (ATCC, Manassas, Va.; Daugherty, et al. (1996) J. Exp. Med. 183:2349-2354) were maintained in RPMI-1640 supplemented with 10% FBS, 1.5 g/L sodium bicarbonate, 4.5 g/L glucose, 2 mM L-glutamine, 10 mM HEPES, 1 mM sodium pyruvate, 50 μM β-mercaptoethanol, and 2 mg/ml G418 in a humidified incubator with 5% CO2 at 37° C.
Cell migration was determined using a 96-well […]® system (Corning, Tewksbury, Mass.). […] The two chambers were separated by a polycarbonate filter with 5 μm pores. For AML14.3D10-CCR3 cells, 2×10^5 cells/well were resuspended in RPMI-1640+0.1% BSA and allowed to migrate for 4 hours at 37° C. For blood eosinophils, 1×10^5 cells/well were resuspended in X-VIVO 10+0.5% BSA and allowed to migrate for 3 hours at 37° C. Migrated cells were counted using a Beckman QUANTA SC flow cytometer. All experiments were performed in duplicate. Checkerboard analysis was done to distinguish chemotaxis from chemokinesis.
Primary eosinophils and the stable CCR3+eosinophilic myelocytic cell line, AML14.3D10-CCR3 (Daugherty, et al. (1996) J. Exp. Med. 183:2349-2354) undergo CCR3-mediated chemotaxis induced by multiple chemokines including eotaxin/CCL11, RANTES/CCL5, MCP-4/CCL13, and MEC/CCL28 (Daugherty, et al. (1996) J. Exp. Med. 183:2349-2354; Pan, et al. (2000) J. Immunol. 165:2943-2949).

IC50 for inhibition of chemotaxis, in words (CCR3 [1]; CCL11-, CCL24-, CCL26-induced chemotaxis, summary of Table 3): low nanomolar range | IC90 (CCR3 [1]; chemotaxis to CCL11/Eotaxin-1 (12 nM)): 760 ± 100 nM | IC90 (CCR3 [1]; chemotaxis to CCL24/Eotaxin-2 (20 nM)): 730 ± 100 nM | IC90 (CCR3 [1]; chemotaxis to CCL26/Eotaxin-3 (100 nM)): 1100 ± 150 nM | chemotactic (agonist) activity by itself (CCR3 [2]; AML14.3D10-CCR3 cells, no chemokine): not chemotactic | IC90 (CCR3 [2]; AML14.3D10-CCR3 cells, chemotaxis to CCL11/Eotaxin-1 (12 nM)): 1750 ± 200 nM | IC90 (CCR3 [2]; AML14.3D10-CCR3 cells, chemotaxis to CCL24/Eotaxin-2 (20 nM)): 890 ± 120 nM | IC90 (CCR3 [2]; AML14.3D10-CCR3 cells, chemotaxis to CCL26/Eotaxin-3 (100 nM)): 780 ± 100 nM
SMILES: CC[C@H](C)[C@H](NC(=O)[C@H](Cc1c[nH]c2ccccc12)NC(=O)[C@H](Cc1ccccc1)NC(=O)[C@@H]1CCCN1C(=O)[C@H](CC(C)C)NC(=O)[C@@H](NC(=O)[C@@H](NC(=O)[C@H](CC(C)C)NC(=O)[C@H](Cc1ccccc1)NC(=O)[C@H](CC(C)C)NC(=O)[C@@H](N)CC(C)C)C(C)C)[C@@H](C)O)C(=O)N[C@@H](Cc1c[nH]cn1)C(=O)N[C@@H](Cc1ccc(O)cc1)C(=O)N[C@H](C(=O)N[C@@H](CCCNC(=N)N)C(=O)NCC(=O)N[C@@H](Cc1c[nH]cn1)C(=O)N[C@@H](CC(N)=O)C(=O)N[C@@H](Cc1c[nH]c2ccccc12)C(=O)N[C@H](C(=O)N[C@@H](Cc1ccccc1)C(=O)NCC(=O)N[C@@H](Cc1c[nH]cn1)C(=O)N[C@@H](CC(=O)O)C(=O)N[C@@H](CC(=O)O)C(=O)N[C@@H](CC(=O)O)C(=O)NCCOCCOCCOCCOCCOCCOCCOCCOCCOCCOCCOCCOCCOCCOCCOCCOCCOCCOCCOCCOCCOCCOCCOCCOCCOCCOCCOCCOCCC(N)=O)C(C)C)C(C)C [Peptide R3-2-1] (H-LLFLVTLPFWIHYVRGHNWVFGHDDD-X1; N-terminus assumed)
inhibition of chemotaxis of blood eosinophils (CCR3 [1]; 2, 10 or 50 μM): similarly able to inhibit chemotaxis of blood eosinophils | tolerance to inhibition of CCL11-induced chemotaxis (CCR3 [2]; 1 μM for 24, 48 or 72 hour, CCL11 12 nM): retains it full inhibitory activity | inhibition of CCR3-mediated chemotaxis induced by Eotaxin/CCL11, RANTES/CCL5 and MEC/CCL28 (CCR3 [2]; AML14.3D10-CCR3 cells, R3-2-1 0.4, 2 or 10 μM): inhibits chemotaxis induced by Eotaxin/CCL11, RANTES/CCL5 and MEC/CCL28 in a dose-dependent fashion
